The values that follow come from ChEMBL document CHEMBL5725356, “Anti-fibrotic pyridinones” (2017).

Where only a bound is given, the exact number is not on record here.

A short description of this assay: ET-1 Assay: Fibroblasts (primary human lung and dermal, HFL-1, 3T3 etc) are seeded in 96-well plates at ~15000 cells/well and serum starved for 0-48 hours. After media exchange, compounds serially diluted in DMSO are added to the cells. After a brief incubation of ~30 min, stimulants (TGFb, serum, LPA etc) are added followed by further incubation for 16-48 hours. Media is then harvested and stored frozen in plate format for later endothelin-1 (ET-1) determination by ELISA. Toxicity measurements are made using the ATPlite kit (Perkin-Elmer). ET-1 is quantified using an ELISA kit (R&D Systems). The amount of ET-1 produced in the assay wells are back-calculated using the ELISA standard. The ability of a compound to inhibit ET-1 production is typically analyzed by fitting dose-response curves to a 4-parameter logistic function to obtain an EC50 value. The following applies: HFL1.
One may read the EC50 as the midpoint of the concentration-response curve. In the case of `Cn1ccc2c(-c3cn[nH]c3)cn(-c3ccc(C#N)cc3)c(=O)c21`, the EC50 is below 50 µM. As for `Cn1cc(-c2cn(-c3ccc(OC(F)(F)F)cc3)c(=O)cc2NCc2ccc(Cl)cc2)cn1`, the 50% effective concentration (EC50) result is “in the range around 125 µM”. As to `O=c1cc(OCCN2CCCC2)c(-c2ccc(F)cc2)cn1-c1ccc(OC(F)(F)F)cc1`, the EC50 was below 50 µM.

In the case of `Cn1cc(-c2cn(-c3ccc(OC(F)(F)F)cc3)c(=O)c3c2OCC(=O)N3)cn1`, the EC50 is above 200 µM. For the compound `O=c1ccc(-c2cccc(Cl)c2)cn1-c1ccncc1`, the EC50 was above 200 µM. Consider `Cc1cc(=O)n(-c2ccc(OC(F)(F)F)cc2)cc1-c1cccc2[nH]c(=O)oc12`, for which the concentration giving a half-maximal response (EC50) is above 200 µM. For `Cn1cc(-c2cn(-c3ccc(OC(F)(F)F)cc3)c(=O)c3c2ccn3C)cn1`, the half-maximal effective concentration (EC50) is below 50 µM. With `Cc1ccc2c(c1)CC(=O)N2c1ccc(OC(F)(F)F)cc1` the figure was above 200 µM. As for `Cn1cc(-c2cn(-c3ccc(OC(F)(F)F)cc3)c(=O)cc2NCc2ccc(F)cc2)cn1`, the EC50 is below 50 µM. In the case of `Cc1cn(-c2ccccc2)c(=O)c2c1CCCC2`, the concentration for a half-maximal effect (EC50) entry is “in the range around 125 µM”. As to `CCOC(=O)Nc1cccc(-n2cc(-c3ccc(F)cc3)c(C)cc2=O)c1`, the EC50 was below 50 µM. With `COc1ccc(CN(C)c2cc(=O)n(-c3ccc(OC(F)(F)F)cc3)cc2-c2cnn(C)c2)cc1`, the EC50 entry is “in the range around 125 µM”. In the case of `O=C1Cc2ccccc2N1c1ccc(OC(F)(F)F)cc1` it was “in the range around 125 µM”.

In the case of `CCCCOC(=O)n1cc(-c2ccc(=O)n(-c3ccccc3)c2)cn1`, the EC50 entry is “in the range around 125 µM”. `CCOc1ccc(-n2cc(-c3c(C)n[nH]c3C)ccc2=O)c(C)c1`: the EC50 result is “in the range around 125 µM”. Regarding `Cc1cc(=O)n(-c2ccc(OC(F)(F)F)cc2C)cc1-c1ccc(F)cc1`, the EC50 is below 50 µM. In the case of `Cn1cc(-c2cn(-c3ccc(OC(F)(F)F)cc3)c(=O)cc2C(=O)O)cn1`, the EC50 is above 200 µM. On to `COCCOc1ccc(-n2cc(-c3ccc(F)cc3)c(C)cc2=O)cc1`, for which the EC50 result was “in the range around 125 µM”.

As for `CCOc1ccc(-n2cc(-c3cn[nH]c3)c(C)cc2=O)c(C)c1`, the 50% effective concentration (EC50) entry is “in the range around 125 µM”. Turning to `Cn1cc(-c2cc(=O)n(-c3ccc(OC(F)(F)F)cc3)cc2-c2cnn(C)c2)cn1`, the EC50 entry is “in the range around 125 µM”.

Turning to `Cc1cc(=O)n(-c2ccccc2)cc1C`, the EC50 is above 200 µM. As for `CCOc1ccc(-n2cc(-c3cnn(C)c3)c(OCCOC(C)C)cc2=O)c(C)c1`, the EC50 entry is “in the range around 125 µM”. Consider `CCOC(=O)Nc1cc(=O)n(-c2ccc(OC(F)(F)F)cc2)cc1-c1cnn(C)c1`, for which the half-maximal effective concentration (EC50) was above 200 µM. As for `Cn1cc(-c2cn(-c3ccc(Cl)cc3)c(=O)c3cccnc23)cn1`, the EC50 was above 200 µM. Turning to `CCOc1ccc(-n2cc(-c3ccc(F)cc3)c3nccnc3c2=O)c(C)c1`, the EC50 was above 200 µM.

Turning to `CC(=O)Nc1cccc(-n2cc(-c3ccc(F)cc3)c(Oc3ccccc3)cc2=O)c1`, the EC50 was below 50 µM.

On to `Cn1cc(-c2cn(-c3cccc(NC(N)=O)c3)c(=O)cc2Oc2ccccc2)cn1`, for which the concentration giving a half-maximal response (EC50) was below 50 µM. Consider `CCOc1ccc(-n2cc(-c3cccc(Cl)c3)ccc2=O)c(C)c1`, for which the EC50 was below 50 µM. In the case of `Cc1nc2c(-c3cn[nH]c3)cn(-c3ccc(OC(F)(F)F)cc3)c(=O)c2s1` it was below 50 µM. For `Cc1cc(=O)n(-c2cccc(N)c2)cc1-c1ccc(F)cc1`, the half-maximal effective concentration (EC50) result is “in the range around 125 µM”. For the compound `CCOc1ccc(-n2cc(-c3ccc(F)cc3)c(Cl)cc2=O)c(C)c1`, the EC50 was above 200 µM. For `Cc1cc(=O)n(-c2ccc(Cl)cc2)cc1-c1ccc(F)cc1`, the half-maximal effective concentration (EC50) was above 200 µM.

Consider `CN(Cc1ccccc1)c1cc(=O)n(-c2ccc(OC(F)(F)F)cc2)cc1-c1cnn(C)c1`, for which the concentration giving a half-maximal response (EC50) was below 50 µM.

`Cc1ccc(=O)n(-c2cc(F)c(F)c(F)c2)c1`: the EC50 was above 200 µM. Consider `CCn1cc2c(-c3cnn(C)c3)cn(-c3ccc(OC(F)(F)F)cc3)c(=O)c2n1`, for which the concentration giving a half-maximal response (EC50) was below 50 µM. Regarding `Cn1cc(-c2cn(-c3ccc(OC(F)(F)F)cc3)c(=O)c3nnn(CCF)c23)cn1`, the EC50 was below 50 µM. Consider `Cn1cc(-c2cn(-c3ccc(OC(F)(F)F)cc3)c(=O)c3ncn(C)c23)cn1` [AKEX-0011], for which the half-maximal effective concentration (EC50) is below 50 µM. In the case of `Cc1cc(=O)n(-c2ccc(Cl)cc2)cc1-c1ccnnc1` it was above 200 µM; in that of `Cc1ccc(=O)n(CCc2ccccc2)c1`, “in the range around 125 µM”.
